Experimental data taken from ChEMBL document CHEMBL3580603, “Natural therapeutic agents for neurodegenerative diseases from a traditional herbal medicine Pongamia pinnata (L.) Pierre” (Bioorg Med Chem Lett, 2014).

How the values were obtained:
BV-2 = experiment: Anti-neuroinflammatory activity against mouse BV2 cells assessed as inhibition of LPS-induced nitric oxide production after 24 hrs by Griess assay; type: functional, cell-based; conditions: BV-2, 24 h
[1] = Cytotoxicity against mouse BV2 cells assessed as reduction of cell viability at IC50 after 24 hrs by MTT assay; type: cell-based; conditions: bv-2, 24 h

Structure (SMILES)	IC50 (BV-2) [µM]	Activity [1]
COc1cc(OC)c(Cl)c(-c2cc(=O)c3ccc4occc4c3o2)c1Cl	> 100	Non-toxic
COc1cc2occc2c2oc(-c3ccccc3)cc(=O)c12	5.98	Non-toxic
COc1ccc(OC)c(-c2cc(=O)c3ccc4occc4c3o2)c1	87.7	Non-toxic
COc1ccc2c(=O)c(OC)c(-c3cc(OC)c4c(c3)OCO4)oc2c1	> 100	Non-toxic
CN1CC[C@@H](O)C[C@H]1C(=O)O	> 100	Non-toxic
COc1ccc(-c2coc3c(OC)c(O)ccc3c2=O)cc1	> 100	Non-toxic
C=C(C)[C@@H]1CC[C@]2(C(=O)O)CC[C@]3(C)[C@H](CC[C@@H]4[C@@]5(C)CCC(=O)C(C)(C)[C@@H]5CC[C@]43C)[C@@H]12 [BETUNOLIC ACID]	> 100	Non-toxic
COc1ccc2c(=O)c(OC)c(-c3ccc(OC)c(OC)c3)oc2c1 [FISETIN TETRAMETHYL ETHER]	28.5	Non-toxic
COc1ccc(-c2coc3cc(O)ccc3c2=O)cc1 [FORMONONETIN]	> 100	Non-toxic
COc1c(-c2ccccc2)oc2c(ccc3occc32)c1=O [KARANJIN]	> 100	Non-toxic
O=c1cc(-c2ccccc2)oc2c1ccc1occc12 [LANCEOLATIN B]	20.6	Non-toxic
O=c1cc(-c2ccc3c(c2)OCO3)oc2c1ccc1occc12 [PONGAGLABRONE]	45.7	Non-toxic
COc1c(-c2ccc3c(c2)OCO3)oc2c(ccc3occc32)c1=O [PONGAPIN]	> 100	Non-toxic

Further lines, with some results ahead:

IC50 (BV-2) [µM]	Structure (SMILES)	Activity [1]
> 100	COc1cccc(-c2cc(=O)c3ccc4occc4c3o2)c1	Non-toxic
> 100	COc1cc(OC)cc(-c2cc(=O)c3ccc4occc4c3o2)c1	Non-toxic
> 100	COc1cc(O)cc(-c2oc3c(ccc4occc43)c(=O)c2OC)c1	Non-toxic
> 100	COc1c2ccoc2cc2oc(-c3ccc4c(c3)OCO4)cc(=O)c12	Non-toxic
> 100	COc1ccc(-c2coc3cc(OCC=C(C)C)ccc3c2=O)cc1	Non-toxic
> 100	COc1ccc(-c2coc3c(O)c(O)ccc3c2=O)cc1O	Non-toxic
6.56	CC1(C)C=Cc2c(ccc(C(=O)/C=C/c3ccc4c(c3)OCO4)c2O)O1	Non-toxic
78.8	CC1(C)C=Cc2c(ccc3c2O[C@H](c2ccc4c(c2)OCO4)CC3=O)O1	Non-toxic
22.7	CC1(C)CC[C@]2(C(=O)O)CC[C@]3(C)[C@H](CC[C@@H]4[C@@]5(C)CC[C@H](O)C(C)(C)[C@@H]5CC[C@]43C)[C@H]2[C@H]1O	Non-toxic
14.1	COc1ccc2c(=O)c(OC)c(-c3ccc4c(c3)OCO4)oc2c1 [DEMETHOXYKANUGIN]	Non-toxic
> 100	CC1(C)C=Cc2cc(C(=O)/C=C/c3ccccc3)c(O)cc2O1 [ISOLONCHOCARPIN]	Non-toxic
3.54	CC1(C)C=Cc2c(ccc(C(=O)/C=C/c3ccccc3)c2O)O1 [LONCHOCARPIN]	Non-toxic
> 100	COc1c2ccoc2cc2oc(-c3ccccc3)cc(=O)c12 [PINNATIN]	Non-toxic
> 100	COc1c(-c2ccc3c(c2)OCO3)oc2c3c(ccc2c1=O)OC(C)(C)C=C3 [PONGACHROMENE]	Non-toxic
> 100	O=c1c(-c2ccc3c(c2)OCO3)coc2cc(O)ccc12 [PSEUDOBAPTOGENIN]	Non-toxic
50.9	COc1ccc(-c2coc3c(O)c(OC)ccc3c2=O)cc1 [RETUSIN 7-METHYL ETHER]	Non-toxic
